Measured values published in patent US8945596B2, “Antimicrobial composition” (Conopco, Inc., priority 2008, dated 2015).

Experiments:
Assay type in all cases: cell-based
[1] = system: Entereobacter; assay: Viable bacteria remaining after 15 seconds of contact with the actives; conditions: 15 seconds contact, culture added 6.87
Method: (§1) About 10^7 bacterial cells (E. coli ATCC 10536) were taken in a test tube and contacted with various compositions for a period of 15 seconds. Bacteria were taken out after 15 seconds of contact and presence of viable cells was determined by serial dilution and plating on agar plates. The data is presented in log (Viable E. Coli) which is the log10 of the number of viable E. Coli remaining after 15 seconds of contact. Thus if 10^4 remained, log (Viable E. Coli) is 4.
(§2) The combination of thymol (0.2%) and terpineol (0.5%) was tested for its efficacy in inhibiting growth of various other bacteria after they are contacted with this combination for about 15 seconds. Similar experiments were carried out with another well known antibacterial active TCC (trichloro carbanilide). The experiments were carried out similar to those of Examples 1 to 3 and the data on the viable bacteria remaining after contact with the actives for 15 seconds is summarized in Table 3

[2] = system: Klebsiella; assay: as above; conditions: 15 seconds contact, culture added 7.35
Method: as §1, §2

[3] = system: Salmonella; assay: as above; conditions: 15 seconds contact, culture added 7.63
Method: as §1, §2

[4] = system: Vibrio cholerae; assay: as above; conditions: 15 seconds contact, culture added 7.58
Method: as §1, §2

[5] = system: E. coli ATCC 10536; assay: Bacterial kill in test tube after 15 seconds of contact, serial dilution and plating; conditions: log10 of viable E. coli remaining after 15 seconds of contact; about 10^7 cells initially; water as carrier
Method: Compositions comprising each individual active and a combination were prepared with water as a carrier (details given in Table 1 below). Terpineol and thymol were obtained from […] aromas, India. […] The data is presented in log (Viable E. Coli) which is the log10 of the number of viable E. […] Eucalyptol and linalool were obtained from Fluka. […] The data in log (Viable E.

[6] = system: Streptococcus mutans ATCC 25175; assay: Oxoplate oxygen depletion growth assay; conditions: no oxygen depletion over 18 hours
Method: (§3) The anti-bacterial activity of the composition of the invention against a commonly found Gram positive oral bacteria viz. Streptococcus mutans ATCC 25175 and a Gram negative oral bacteria Neisseria subflava ATCC 19243) was determined. This was investigated using Oxoplates. Oxoplates monitor oxygen depletion within the reaction system (containing bacteria, broth and actives).
(§4) A Gram positive (Streptococcus mutans ATCC 25175) and a Gram negative (Neisseria subflava ATCC 19243) bacterium were selected for testing the active solutions. Both bacteria were grown on BHIS agar plates for 24 hours at 37° C./15% CO2, they were then suspended in PBS to a McFarland standard of 2 (˜6×10^8 cells).
(§5) Each active was dissolved in 50% ethanol solutions for testing. All solutions were made at 10 times concentrated to allow for dilution in the plate. Reduced concentrations were used for N. subflava due to the greater sensitivity of this organism to biocides,
(§6) The following components were placed into the wells of the Oxoplates, • 170 µl BHI broth • 20 µl test solution • 10 µl bacteria
(§7) The broth was placed into the Oxoplate first, followed by the test solution, and then the bacterium. Water or 50% ethanol controls were also used in each plate. All solutions were tested in replicates of four. The plates were placed into the fluorescent plate reader, incubated at 37° C. and measured every 15 minutes for 18 hours. The sensors on the bottom of the wells were measured at 2 wavelengths, • Indicator (650/[…]) • Reference (590/540 nm).
(§8) The oxygen concentration was calculated using these values and a calibration performed for maximum and minimum oxygen concentration. A graph was then plotted of the oxygen depletion curves over the 18 hour period, which was used to determine the level at which the bacteria start to deplete the oxygen.

[7] = system: Neisseria subflava ATCC 19243; assay: Oxoplate oxygen depletion growth assay; conditions: no oxygen depletion over 18 hours
Method: as §3, §4, §5, §6, §7, §8

Which results are given for `O=C(Nc1ccc(Cl)cc1)Nc1ccc(Cl)c(Cl)c1` [0.2% TCC, trichloro carbanilide]?
viable bacteria remaining [1]: 6.87 Log (CFU/ml); viable bacteria remaining [2]: 7.28 Log (CFU/ml); viable bacteria remaining [3]: 7.33 Log (CFU/ml); viable bacteria remaining [4]: 7.20 Log (CFU/ml)

Which “Log (Viable E. coli)” value [5] does the source give for `Cc1ccc(C(C)C)c(O)c1` [Example 1, Thymol] here?
The value was 3.1.

For `Cc1ccc(C(C)C)c(O)c1` [Example 25, Thymol], which “Concentration of active (wt %) at no growth” value ([6]; thymol concentration) is on record?
Its value is “Thymol (0.08%) wt %”.

How did the “Concentration of active (wt %) at no growth” value ([7]; thymol concentration) turn out when `Cc1ccc(C(C)C)c(O)c1` [Example 28, Thymol] was run?
Its value is “Thymol (0.02%) wt %”.

Terpineol [Example 2] was tested. Which “Log (Viable E. coli)” value [5] did it give?
The value was 6.3.

Which “Concentration of active (wt %) at no growth” value ([6]; terpineol concentration) does the source give for Terpineol [Example 24] here?
Its value is “Terpineol (0.4%) wt %”.

With Terpineol [Example 27] as the compound, how does the “Concentration of active (wt %) at no growth” value ([7]; terpineol concentration) read?
Its value is “Terpineol (0.08%) wt %”.
